Reference: paper PMC10005332, “It Takes Two to Tango, Part II: Synthesis of A-Ring Functionalised Quinones Containing Two Redox-Active Centres with Antitumour Activities” (Molecules, 2023)
Where two headings read alike, the source gives them in different places.

Legend:
[1] = test system: K-562 (human chronic myeloid leukaemia); experiment: MTT cytotoxicity assay, K-562; format: cell-based; settings: for IC50: Homo sapiens, K562, MTT, 72 h exposure, three independent experiments, read-out: Cytotoxic activity IC50 (95% CI) K-562; for Selectivity index K-562: ratio of cytotoxicity L929 / K-562
Procedure: (§1) In this study, the IC50 was obtained in micromolar concentrations, using the colourimetric MTT (3-(4,5-dimethylthiazol-2-yl)-2,5-diphenyl tetrazolium bromide)) assay, and doxorubicin was used as the positive control. […] The activity against the non-tumoural murine fibroblast cell line L929 was also evaluated in order to study the cytotoxicity behaviour of each compound and to understand their respective relative selectivity. The selectivity index was obtained using the ratio of measured cytotoxicity between the L929 cell line and each of the cancer cell lines, and the results are presented in Table 2.
(§2) The in vitro cytotoxicity activity of the compounds was evaluated by the colorimetric MTT (3-(4,5-dimethylthiazol-2-yl)-2,5-diphenyl tetrazolium bromide)) assay using the following tumor cell lines: HCT-116 (colon carcinoma), PC3 (prostate), SNB-19 (glioblastoma), K-562 (myelogenous leukaemia), HL-60 (human promyelocytic leukaemia), B16 (murine melanoma), A549 (human lung carcinoma), KG1 (human acute myeloid leukaemia), and RAJI (human Burkitt’s lymphoma), which were provided by the National Cancer Institute (Bethesda, MD, USA). The L929 cell line (mouse fibroblast L cells NCTC clone 929) employed in this study as a control cell line was obtained from the American Type Culture Collection (Manassas, VA, USA). The cell lines (Table S4) were maintained in flasks containing RPMI 1640 or DMEM medium supplemented with 10% bovive fetal sérum, 100 U/mL penicillin, and 100 μg/mL streptomycin at 37 °C and in 5% CO2 atmosphere. The compounds tested were dissolved in DMSO. Doxorubicin served as the positive control. Cell treatments were performed with three replicates and the cells were mycoplasma free. After 72 h incubation, 100 μL of MTT solution (0.5 mg/mL) was added to each well, and the cells were incubated for 3 h. The supernatant was removed and 100 μL of DMSO was added and the absorbance at 595 nm was measured using Victor Nivo Multimode plate reader (PerkinElmer, Waltham, MA, USA). The absorbances obtained were used to calculate the IC50 values by nonlinear regression employing appropriate statistical software.
(§3) The in vitro cytotoxicity activity of compounds was evaluated by the colorimetric MTT (3-(4,5-dimethylthiazol-2-yl)-2,5-diphenyl tetrazolium bromide)) assay using tumor cell lines: HCT-116 (colon carcinoma), PC3 (prostate), SNB-19 (glioblastoma), K-562 (myelogenous leukaemia), HL-60 (human promyelocytic leukaemia), B16 (murine melanoma), A549 (human lung carcinoma), KG1 (human acute myeloid leukaemia) and RAJI (human Burkitt's lymphoma), which were provided by the National Cancer Institute (Bethesda, MD, USA). The L929 cell line (mouse fibroblast L cells NCTC clone 929) employed in this study as a control cell line was obtained from the American Type Culture […]
(§4) Collection (Manassas, VA, USA). Cell lines (Table 01) were maintained in flasks containing RPMI 1640 or DMEM medium supplemented with 10% bovive fetal sérum, 100 U/mL penicillin, and 100 μg/mL streptomycin at 37 °C and 5% CO2 atmosphere.
(§5) Compounds tested were dissolved in DMSO. Doxorubicin served as positive control. Cell treatments were performed with three replicates and cells were mycoplasma-free. After 72 h incubation, 100 μL of MTT solution (0.5 mg/mL) was added to each well, and cells were incubated for 3 h. The supernatant was removed and 100 μL of DMSO was added and the absorbance at 595 nm was measured using Victor Nivo Multimode plate reader

[2] = test system: SNB-19 (human astrocytoma); experiment: MTT cytotoxicity assay, SNB-19; format: cell-based; settings: for IC50: Homo sapiens, SNB-19, MTT, 72 h exposure, three independent experiments, read-out: Cytotoxic activity IC50 (95% CI) SNB-19; for Selectivity index SNB-19: ratio of cytotoxicity L929 / SNB-19
Procedure: as §1, §2, §3, §4, §5

[3] = test system: KG1 (human acute myeloid leukaemia); experiment: MTT cytotoxicity assay, KG1; format: cell-based; settings: for IC50: Homo sapiens, MTT, 72 h exposure, three independent experiments, read-out: Cytotoxic activity IC50 (95% CI) KG1; for Selectivity index KG1: ratio of cytotoxicity L929 / KG1
Procedure: as §1, §2, §3, §4, §5

[4] = test system: PC3 (human prostate adenocarcinoma); experiment: MTT cytotoxicity assay, PC3; format: cell-based; settings: for IC50: Homo sapiens; for Selectivity index PC3: ratio of cytotoxicity L929 / PC3
Procedure: as §1, §2, §3, §4, §5

[5] = test system: HL60 (human pro-myelocytic leukaemia); experiment: MTT cytotoxicity assay, HL60; format: cell-based; settings: for IC50: Homo sapiens, HL-60, 72 h, MTT, 72 h exposure, three independent experiments, read-out: Cytotoxic activity IC50 (95% CI) HL60; for Selectivity index HL60: ratio of cytotoxicity L929 / HL60
Procedure: as §1, §2, §3, §4, §5

[6] = MTT cytotoxicity assay, L929 control line; format: cell-based, mouse; settings: mouse, L929 fibroblast cells (non-tumoral control line), 72 h exposure, read-out: Cytotoxic activity IC50 (95% CI) L929
Procedure: as §1, §2, §3, §4, §5

[7] = test system: L929 cells (non-tumoral mouse fibroblast); experiment: MTT cytotoxicity assay, L929 control line; format: cell-based; settings: 72 h exposure, read-out: Cytotoxic activity IC50 (95% CI) L929
Procedure: as §1, §2, §3, §4, §5

[8] = test system: B16 (murine melanoma); experiment: MTT cytotoxicity assay, B16; format: cell-based; settings: for IC50: Mus musculus, MTT, 72 h exposure, three independent experiments, read-out: Cytotoxic activity IC50 (95% CI) B16; for Selectivity index B16: ratio of cytotoxicity L929 / B16
Procedure: as §1, §2, §3, §4, §5

[9] = test system: A549 (human lung carcinoma); experiment: MTT cytotoxicity assay, A549; format: cell-based; settings: for IC50: Homo sapiens, A549, MTT, 72 h exposure, three independent experiments, read-out: Cytotoxic activity IC50 (95% CI) A549; for Selectivity index A549: ratio of cytotoxicity L929 / A549
Procedure: as §1, §2, §3, §4, §5

[10] = test system: RAJI (human Burkitt’s lymphoma); experiment: MTT cytotoxicity assay, RAJI; format: cell-based; settings: for IC50: Homo sapiens, Raji, 72 h, MTT, 72 h exposure, three independent experiments, read-out: Cytotoxic activity IC50 (95% CI) RAJI; for Selectivity index RAJI: ratio of cytotoxicity L929 / RAJI
Procedure: as §1, §2, §3, §4, §5

[11] = test system: HCT-116 (human colorectal carcinoma); experiment: MTT cytotoxicity assay, HCT-116; format: cell-based; settings: for IC50: Homo sapiens, HCT-116, 72 h, MTT, 72 h exposure, three independent experiments, read-out: Cytotoxic activity IC50 (95% CI) HCT-116; for Selectivity index HCT-116: ratio of cytotoxicity L929 / HCT-116
Procedure: as §1, §2, §3, §4, §5

[12] = MTT, 72 h exposure, three independent experiments, read-out: Cytotoxic activity IC50 (95% CI) PC3

Row | Structure (SMILES) | IC50 [1] [µM] | Selectivity index K-562 [1] | IC50 [2] [µM] | Selectivity index SNB-19 [2] | IC50 [3] [µM] | Selectivity index KG1 [3] | IC50 [4, 12] [µM] | Selectivity index PC3 [4] | IC50 [5] [µM] | Selectivity index HL60 [5] | IC50 at 72 h [6] [µM] | IC50 [8] [µM] | Selectivity index B16 [8] | IC50 [9] [µM] | Selectivity index A549 [9] | IC50 [10] [µM] | Selectivity index RAJI [10] | IC50 [11] [µM] | Selectivity index HCT-116 [11] | further results
1 | C#CCNC1=CC(=O)c2c(O)cccc2C1=O [Compound 18b, 5-hydroxy-2-(prop-2-yn-1-ylamino)naphthalene-1,4-dione] | 25 | 1.0 | 15 | 1.6 | > 100 | 0.2 | > 100 | 0.2 | > 100 | 0.2 | 24 | 8.65 | 2.8 | 15 | 1.6 | 23.2 | 1.0 | – | – | IC50 [7]: 23.9 µM
2 | CC1(C)OC2=C(CC1Cn1cc(CNC3=CC(=O)c4cccc(OCc5ccccc5)c4C3=O)nn1)C(=O)C(=O)c1ccccc12 (stereo not drawn) [Compound 21d, 3-((4-(((8-benzyloxy-1,4-dioxo-1,4-dihydronaphthalen-2-yl)amino)methyl)-1H-1,2,3-triazol-1-yl)methyl)-2,2-dimethyl-3,4-dihydro-2H-benzo[h]chromene-5,6-dione] | 10.1 | 0.5 | 3.83 | 1.4 | 11.5 | 0.5 | 9.76 | 0.5 | 0.89 | 5.9 | 5.27 | 5.12 | 1.0 | 2.61 | 2.0 | 28.7 | 0.2 | 4.16 | 1.3 | –
3 | CC1(C)OC2=C(C(=O)C(=O)c3ccccc32)C1n1cc(CNC2=CC(=O)c3c(O)cccc3C2=O)nn1 (stereo not drawn) [Compound 19b, 3-(4-(((5-hydroxy-1,4-dioxo-1,4-dihydronaphthalen-2-yl)amino)methyl)-1H-1,2,3-triazol-1-yl)-2,2-dimethyl-2,3-dihydronaphtho[1,2-b]furan-4,5-dione] | 3.16 | 1.9 | 3.35 | 1.8 | 5.24 | 1.1 | 3.16 | 1.9 | 0.99 | 6.0 | 5.97 | 3.55 | 1.7 | 3.16 | 1.9 | 2.55 | 2.3 | 1.7 | 3.5 | –
4 | CC1(C)OC2=C(CC1Cn1cc(CNC3=CC(=O)c4c(O)cccc4C3=O)nn1)C(=O)C(=O)c1ccccc12 (stereo not drawn) [Compound 21b, 3-((4-(((5-hydroxy-1,4-dioxo-1,4-dihydronaphthalen-2-yl)amino)methyl)-1H-1,2,3-triazol-1-yl)methyl)-2,2-dimethyl-3,4-dihydro-2H-benzo[h]chromene-5,6-dione] | 4.13 | 0.5 | 4.24 | 0.5 | 3.01 | 0.7 | 3.85 | 0.5 | 2.23 | 0.9 | 2.07 | 3.94 | 0.5 | 1.68 | 1.2 | 2.01 | 1.0 | 1.64 | 1.3 | –
5 | C#CCNC1=CC(=O)c2cccc(OC)c2C1=O [Compound 18c, 8-methoxy-2-(prop-2-yn-1-ylamino)naphthalene-1,4-dione] | > 100 | – | > 100 | – | > 100 | – | > 100 | – | > 100 | – | > 100 | 43.8 | 2.3 | > 100 | – | 39.3 | 2.5 | > 100 | – | –
6 | COc1cccc2c1C(=O)C(NCc1cn(CC3CC4=C(OC3(C)C)c3ccccc3C(=O)C4=O)nn1)=CC2=O (stereo not drawn) [Compound 21c, 3-((4-(((8-methoxy-1,4-dioxo-1,4-dihydronaphthalen-2-yl)amino)methyl)-1H-1,2,3-triazol-1-yl)methyl)-2,2-dimethyl-3,4-dihydro-2H-benzo[h]chromene-5,6-dione] | 5.3 | 1.1 | 4.92 | 1.1 | 1.32 | 4.2 | 5.09 | 1.1 | 2.28 | 2.5 | 5.6 | 4.57 | 1.2 | 4.78 | 1.2 | 1.22 | 4.6 | 4.85 | 1.2 | –
7 | [N-]=[N+]=NCC1CC2=C(O1)c1ccccc1C(=O)C2=O (stereo not drawn) [Compound 7, 2-(azidomethyl)-2,3-dihydronaphtho[1,2-b]furan-4,5-dione] | 0.98 | 3.5 | 1.43 | 2.4 | 3.67 | 0.9 | 2.25 | 1.5 | 0.59 | 5.9 | 3.46 | 1.99 | 1.7 | 2.63 | 1.3 | 0.53 | 6.5 | 1.8 | 1.9 | IC50 ([4]; 72 h, read-out: Bioactivity class according to IC50, PC3): 2 to 10 µM
